# Laboratory results published in PubChem BioAssay AID1919002 (Molecular Pharmacology Branch, DTP, NCI, 2023).
# System: 743489-274-T-PDC complex spheroid growth
# Experiment: Anticancer human tumor 743489-274-T-PDC patient-derived renal cell carcinoma cell line growth inhibition [AhR]
# Settings: for IC50: curve of first compound; for viability, T/C: stronger effect = lower value
# Method in brief: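 Complex tumor spheroids co-cultured with HUVEC and human MSC stroma; AhR antagonists tested in combination with standard-of-care and investigational agents. Top concentration at or near clinical Cmax (else 10 microM), half-log dilutions; growth expressed as percent test/control.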
# [1] = second compound 0.1 µM, first compound 0.0316 µM
# [2] = second compound 0.1 µM, first compound 0.1 µM
# [3] = second compound 0.1 µM, first compound 0.316 µM
# [4] = second compound 0.1 µM, first compound 1 µM
# [5] = second compound 0.1 µM, first compound 3.16 µM
# [6] = second compound 0.1 µM, first compound 10 µM
# [7] = second compound 0.316 µM, first compound 0.0316 µM
# [8] = second compound 0.316 µM, first compound 0.1 µM
# [9] = second compound 0.316 µM, first compound 0.316 µM
# [10] = second compound 0.316 µM, first compound 1 µM
# [11] = second compound 0.316 µM, first compound 3.16 µM
# [12] = second compound 0.316 µM, first compound 10 µM
# [13] = second compound 1 µM, first compound 0.0316 µM
# [14] = second compound 1 µM, first compound 0.1 µM
# [15] = second compound 1 µM, first compound 0.316 µM
# [16] = second compound 1 µM, first compound 1 µM
# [17] = second compound 1 µM, first compound 3.16 µM
# [18] = second compound 1 µM, first compound 10 µM
# [19] = second compound 3.16 µM, first compound 0.0316 µM
# [20] = second compound 3.16 µM, first compound 0.1 µM
# [21] = second compound 3.16 µM, first compound 0.316 µM
# [22] = second compound 3.16 µM, first compound 1 µM
# [23] = second compound 3.16 µM, first compound 3.16 µM
# [24] = second compound 3.16 µM, first compound 10 µM
# [25] = second compound 10 µM, first compound 0.0316 µM
# [26] = second compound 10 µM, first compound 0.1 µM
# [27] = second compound 10 µM, first compound 0.316 µM
# [28] = second compound 10 µM, first compound 1 µM
# [29] = second compound 10 µM, first compound 3.16 µM
# [30] = second compound 10 µM, first compound 10 µM
# 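Further: spheroids exposed to agents for 7 days before readout.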
# 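Wherever viability, T/C is given: 100% = DMSO vehicle control wells.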
IC50 (second compound 0.1 µM) [µM],IC50 (second compound 0.316 µM) [µM],IC50 (second compound 1 µM) [µM],IC50 (second compound 3.16 µM) [µM],IC50 (second compound 10 µM) [µM],Compound,"viability, T/C [1] [%]","viability, T/C [2] [%]","viability, T/C [3] [%]","viability, T/C [4] [%]","viability, T/C [5] [%]","viability, T/C [6] [%]","viability, T/C [7] [%]","viability, T/C [8] [%]","viability, T/C [9] [%]","viability, T/C [10] [%]","viability, T/C [11] [%]","viability, T/C [12] [%]","viability, T/C [13] [%]","viability, T/C [14] [%]","viability, T/C [15] [%]",also measured
> 10,> 10,> 10,> 10,> 10,CC1(C)CCC(CN2CCN(c3ccc(C(=O)NS(=O)(=O)c4ccc(NCC5CCOCC5)c([N+](=O)[O-])c4)c(Oc4cnc5[nH]ccc5c4)c3)CC2)=C(c2ccc(Cl)cc2)C1 + Cc1cncc(-c2nc(NCCc3c[nH]c4ccccc34)c3ncn(C(C)C)c3n2)c1,103,105,107,106,99.5,113,98.5,110,106,104,104,123,99.4,108,103,"viability, T/C [16]: 114%; viability, T/C [17]: 133%; viability, T/C [18]: 128%; viability, T/C [19]: 116%; viability, T/C [20]: 123%; viability, T/C [21]: 119%; viability, T/C [22]: 135%; viability, T/C [23]: 145%; viability, T/C [24]: 138%; viability, T/C [25]: 106%; viability, T/C [26]: 111%; viability, T/C [27]: 112%; viability, T/C [28]: 133%; viability, T/C [29]: 151%; viability, T/C [30]: 227%"
> 10,> 10,> 10,> 10,> 10,CC1COCCN1c1cc(C2(S(C)(=N)=O)CC2)nc(-c2ccnc3[nH]ccc23)n1 (stereo not given) + Cc1ccccc1N=Nc1ccc(NC(=O)c2ccnn2C)c(C)c1,92.1,101,92.2,97.3,98.8,102,99,87.6,109,88.4,86.8,99.1,104,99.4,95.8,"viability, T/C [16]: 88%; viability, T/C [17]: 88.4%; viability, T/C [18]: 81.5%; viability, T/C [19]: 86.8%; viability, T/C [20]: 85.7%; viability, T/C [21]: 95.5%; viability, T/C [22]: 78.6%; viability, T/C [23]: 83.2%; viability, T/C [24]: 80.4%; viability, T/C [25]: 85.4%; viability, T/C [26]: 89.1%; viability, T/C [27]: 87.4%; viability, T/C [28]: 84.8%; viability, T/C [29]: 78.4%; viability, T/C [30]: 75%"
> 10,> 10,> 10,> 10,> 10,CC(C)c1c(-c2ccccc2)nc2c(C#N)c[nH]n2c1=O + CC(CO)NC(=O)c1cc(-c2ccc(Cl)cc2)nn(-c2cnn(C)c2)c1=O,101,96.5,101,111,93.9,102,93,97.9,99.2,93.2,90.4,102,94.7,90.3,97.5,"viability, T/C [16]: 90.2%; viability, T/C [17]: 102%; viability, T/C [18]: 101%; viability, T/C [19]: 90%; viability, T/C [20]: 99.5%; viability, T/C [21]: 99.9%; viability, T/C [22]: 96.6%; viability, T/C [23]: 98.3%; viability, T/C [24]: 95%; viability, T/C [25]: 98.9%; viability, T/C [26]: 101%; viability, T/C [27]: 99.7%; viability, T/C [28]: 95.7%; viability, T/C [29]: 95.1%; viability, T/C [30]: 93.8%"
